Laboratory results from patent publication US20090253206A1, “NUCLEAR TRANSPORT AGENT AND METHOD FOR PRODUCING SAID AGENT” (LONZA COLOGNE AG, priority 2006, published 2009).
Ends that are not written are not given here.

Experiments:
pmaxGFP plasmid DNA [1] = assay: Electrophoretic mobility shift assay in agarose gel, NLS peptides in water (FIG. 1); format: binding; details: 1 μg DNA with μg amounts of peptide in water, 20 μl, 20° C., 30 min; 0.6% agarose gel
Description: 1 μg DNA was incubated with peptide (μg amounts as indicated in the figure) in water in a total volume of 20 μl at 20° C. for 30 min. After that loading dye was added, each sample filled into a slot of a 0.6% agarose gel (Tris-acetate/EDTA as running buffer, pH 8.5). Electrophoresis was run at 90V for 120 min. P=1 μg plasmid DNA without peptide. M=kb marker (bands indicating 1.5, 2, 3, 4, 5, and 6 kb). The gel was stained with Ethidiumbromide for 10 min, then documented using a BioRad Gel-Doc System.
DNA interacting unspecifically with peptides through positively charged amino acids may mask positively charged nuclear localisation sequences (NLS) and interfere with their function in nuclear transport.
Peptides were synthesized by F-moc-Chemistry and HPLC-purified to 95% purity. The carboxyl-group at the C-terminus was amidated and the N-terminal amino-group was actylated, in order to eliminate additional charges.
DNA was pmaxGFP plasmid DNA ([…] size).
(§1) The NLS on the NLS-1 peptide may be masked and altered in its capacity to mediate nuclear translocation, whereas all other peptides are still functioning in nuclear import.

pmaxGFP plasmid DNA [2] = assay: Electrophoretic mobility shift assay in agarose gel, peptides with different positive net charges (FIG. 2); format: binding; details: 1 μg DNA with 1 nM peptide in water, 20 μl, 20° C., 30 min; 0.6% agarose gel
Description: 1 μg DNA was incubated with 1 nM peptide in water in a total volume of 20 μl at 20° C. for 30 min. After that loading dye was added, each sample filled into a slot of a 0.6% agarose gel (Tris-acetate/EDTA as running buffer, pH 8.5). Electrophoresis was run at 90V for 120 min. P=1 μg plasmid DNA without peptide. M=kb marker (bands indicating 1.5, 2, 3, 4, 5, and 6 kb). The gel was stained with Ethidiumbromide for 10 min, then documented using a BioRad Gel-Doc System.
DNA interacting unspecifically with peptides through positively charged amino acids may mask positively charged nuclear localisation sequences (NLS) and interfere with their function in nuclear transport. […] Peptides were designed with different positive net charges, 5+, 4+, 3+, 2+, 0±, by exchanging neutral amino acids for acidic ones or vice versa acidic for neutral amino acids
Peptides were synthesized by F-moc-chemistry and HPLC-purified to 95% purity. The carboxyl-group at the C-terminus was amidated and the N-terminal amino-group was actylated, in order to eliminate additional charges.
as §1

pmaxGFP plasmid DNA [3] = assay: DNA-band shift of plasmid DNA with positively charged peptides and peptide-NLS in Opti-MEM (FIGS. 3 and 4); format: binding; details: 90 ng or 135 ng DNA, various peptide amounts in Opti-MEM, 20° C., 30 min; comparison between peptides
Description: Plasmid DNA (90 ng per sample) was incubated with different amounts (numbers above each lane indicate pico-mole amounts per sample) of positively charged peptides (see list of peptide sequences for details) in Opti-MEM as described below.
Several positively charged peptides, as well as positively charged peptides bearing a positively charged NLS (NLS1) or a neutral NLS (NLS2) were tested for their ability to complex DNA and form higher aggregates, visible as shifts of the electrophoretic mobility of the DNA.
Peptides were synthesized by F-moc-chemistry and HPLC-purified to 95% purity. The carboxyl-group at the C-terminus was amidated and the N-terminal amino-group was actylated, in order to eliminate additional charges. U represents the spacer molecule 8-amino-3,6-dioxaoctanoic acid (UUU (U3) represents a trimer of U):
Lyophilized peptides, provided by supplier, were dissolved in distilled water to 0.1 mM. DNA was pmaxGFP plasmid DNA, 3.7 kb size (amaxa AG, Cologne), dissolved in water at 1 mg/ml. The plasmid encodes a green fluorescent protein (GFP).
For DNA-band shift experiments 90 ng or 135 ng DNA, resp., were incubated with various amounts of peptide (indicated in the figure) in Opti-MEM (Invitrogen) in a total volume of 60 μl or 90 μl, resp., at 20° C. for 30 min. Loading dye was added before each sample was filled into a slot of a 0.6% agarose gel (40 mM Tris-acetate/1 mM EDTA as running buffer, pH 8.0). Electrophoresis was run at 90V for 120 min.
P=90 ng plasmid DNA without peptide M=kb marker (bands indicating 0.5, 1, 1.5, 2, 3, 4, 5, 6, 8, and 10 kb).
The gel was stained with Ethidiumbromide for 10 min, then documented using a BioRad Gel-Doc System.
With increasing amounts of peptide the DNA band is gradually shifting, indicating decreased electrophoretic mobility due to higher molecular size of the peptide-DNA complexes and due to decrease in negative charge of the DNA compensated by the positively charged peptides. As the concentration of the peptide further increases, the molecular weight of the complexes increases as well. The complexes are therefore hardly moving into the gel, the bands appear right below the loading slot. The plasmid DNA is represented by two bands in the gel, one dominant band of super-coiled slightly above 2 kb, and a weaker band between 3 and 4 kb showing the relaxed plasmid DNA.

[4] = tested on: Human Umbilical Vein Endothelial Cells (HUVEC); assay: Transfection of HUVEC with ExGen500 and peptide-NLS, GFP expression by flow cytometry; format: cell-based; details: for transfection efficiency (percentage of GFP-positive cells of all viable cells): ExGen500, 1.5 μg DNA, 24 hours post transfection; for change of transfection efficiency (in words): FIG. 5 and FIG. 6
Description: (§2) Cells were grown and seeded as described below. FACS data of duplicate samples are shown.
Cells were grown and seeded as described below. Mean values of the duplicate samples are shown.
(§3) Human Umbilical Vein Endothelial Cells (HUVEC, from LONZA) were grown in EGM-2 medium (Bullet Kit, LONZA) and seeded in 12-well plates one day before transfection at a density of 1.2×10^5 cells per well in 1 ml EGM-2 medium (LONZA).
(§4) Transfection reagents were ExGen500 (Fermentas) and HiFect (amaxa) used according to manufacturer's protocols. Plasmid-DNA (1.5 μg), coding for green fluorescent protein (pmaxGFP, amaxa) was complexed with peptides (amounts as indicated in the figures) for 30 min at room temperature prior to mixing with transfection reagent.
For transfection with ExGen500 complex formation was done in 30 μl 150 mM NaCl solution. These preformed DNA-peptide complexes were added to transfection reagent (diluted in Opti-MEM or 150 mM NaCl according to manufacturer's protocols) and incubated.
Complete transfection samples were added to HUVEC in Opti-MEM, incubated for 1 h at 37° C./5% CO2 in a humidified incubator. Medium was aspirated, cells washed with PBS twice. Fresh medium was added, and cells were incubated for another 23 h, then prepared for flow cytometry. To differentiated PC12 transfection samples were added in Opti-MEM, incubated for 1 h. After supernatant was removed fresh medium was added. Expression of maxGFP was measured by flow cytometry and expressed as transfection efficiency (percentage of GFP-positive cells of all viable cells) and X-mean (mean fluorescent intensity of the cells) 24 h after transfection (HUVEC), 48 h or 72 h after transfection in the case of PC12.

[5] = tested on: neuronally differentiated PC12 cells; assay: Transfection of neuronally differentiated PC12 cells with HiFect and peptide-NLS, GFP expression by flow cytometry; format: cell-based; details: differentiated PC12, HiFect, 1 μg DNA
Description: (§5) Cells were grown and seeded as described below. FACS data of mean values of the duplicate samples are shown.
PC12 cells (from ATCC) were grown in F-12K medium (ATCC) with 15% horse serum (Gibco) and 2.5% foetal calf serum (ATCC). Cells were seeded in 12-well plates; 5×10^4 coated with collagen (from rat tail (SIGMA), 60 μg per well, dissolved in 0.005% acetic acid/30% ethanol at 60 μg per ml). After one day of culture nerve growth factor (NGF-β from SIGMA, 100 ng/ml final concentration) was added to differentiate neuronal cells. 7 days after start of differentiation, cells were used for transfection.
Transfection reagents were ExGen500 (Fermentas) and HiFect (amaxa) used according to manufacturer's protocols. […]
(§6) For transfection with HiFect complex formation of DNA and peptide was done in 250 μl Opti-MEM (Invitrogen) for each sample.
Complete transfection samples were added to HUVEC in Opti-MEM, incubated for 1 h at 37° C./5% CO2 in a humidified incubator. Medium was aspirated, cells washed with PBS twice. Fresh medium was added, and cells were incubated for another 23 h, then prepared for flow cytometry. […] Expression of maxGFP was measured by flow cytometry and expressed as transfection efficiency (percentage of GFP-positive cells of all viable cells) and X-mean (mean fluorescent intensity of the cells) 24 h after transfection (HUVEC), 48 h or 72 h after transfection in the case of PC12. […]

[6] = tested on: Human Umbilical Vein Endothelial Cells (HUVEC); assay: Transfection of HUVEC with HiFect and peptide-NLS, GFP expression by flow cytometry; format: cell-based; details: HiFect, 1.5 μg DNA, 24 hours post transfection, FIG. 8 and FIG. 9
Description: as §2, §5, §3, §4, §6
Complete transfection samples were added to HUVEC in Opti-MEM, incubated for 1 h at 37° C./5% CO2 in a humidified incubator. Medium was aspirated, cells washed with PBS twice. […] Expression of maxGFP was measured by flow cytometry and expressed as transfection efficiency (percentage of GFP-positive cells of all viable cells) and X-mean (mean fluorescent intensity of the cells) 24 h after transfection (HUVEC), 48 h or 72 h after transfection in the case of PC12.

GSGSPKKKRKVGSG (Ac-GSGSPKKKRKVGSG-NH2) [NLS-1, SV40 large T-antigen core NLS with glycine and serine flanks]
alteration of the electrophoretic mobility of DNA (binding to DNA, aggregates) (pmaxGFP plasmid DNA [1]): does bind to DNA and forms aggregates | alteration of the electrophoretic mobility of DNA (binding to DNA, aggregates) (pmaxGFP plasmid DNA [2]): do bind to DNA and form aggregates

KKKKK KKKKK KKKKK K-UUU (Ac-KKKKKKKKKKKKKKKK; not fully specified (C-terminus); printed as KKKKK KKKKK KKKKK K-UUU) [K16U3]
peptide amount needed to form a high molecular weight complex / total band shift (pmaxGFP plasmid DNA [3]): form a high molecular weight complex (i.e. no migration into the gel) at the same concentrations | transfection efficiency (percentage of GFP-positive cells of all viable cells) ([4]; FIG. 5): 49.5% | change of transfection efficiency (in words) ([4]; ExGen500, 24 h): decreasing transfection efficiency

KKKKK KKKKK KKKKK K-UUU-EEDTP PKKKR KVED [K16U3-NLS2]
transfection efficiency (percentage of GFP-positive cells of all viable cells) ([4]; FIG. 5): 69% | increase of transfection efficiency, factor ([4]; ExGen500, 24 h, compared to peptide K16U3 without NLS, FIG. 5): 1.4 | maximum increase in transfection efficiency, factor ([5]; 72 hours post transfection, compared to HiFect without peptide, FIG. 10): 2.6

KKKKK KKKKK KKKKK K-UUU-GSGSP KKKRK VGSG [K16U3-NLS1]
change of transfection efficiency (in words) ([4]; ExGen500, 24 h): increase of transfection efficiency is less distinctive

KKKKK KKKKK KKKKK KGGGS (Ac-KKKKKKKKKKKKKKKKGGGS-NH2) [K16GGGS]
peptide amount needed to form a high molecular weight complex / total band shift (pmaxGFP plasmid DNA [3]): form a high molecular weight complex (i.e. no migration into the gel) at the same concentrations

KKKKKKKKKKKKKKKKKKKKKKKKKGGGS (KKKKKKKKKKKKKKKKKKKKKKKKKGGGS; DNA-anchoring peptide) [K25GGGS]
peptide amount needed to form a high molecular weight complex / total band shift (pmaxGFP plasmid DNA [3]): cause a total shift to decreased electrophoretic mobility at lower peptide amounts than K16GGGS and K16U3

RKKRKRKKRKRKKRKRKKRKGGGS (Ac-RKKRKRKKRKRKKRKRKKRKGGGS-NH2) [RKK20GGGS]
peptide amount needed to form a high molecular weight complex / total band shift (pmaxGFP plasmid DNA [3]): cause a total shift to decreased electrophoretic mobility at lower peptide amounts than K16GGGS and K16U3

RKKRK RKKRK RKKRK RKKRK-PEG27- EEDTP PKKKR KVED [RKK20-PEG27-NLS2]
peptide amount needed to form a high molecular weight complex / total band shift (pmaxGFP plasmid DNA [3]): behaves similarly | increase in transfection efficiency, factor ([4]; ExGen500, 24 h, FIG. 7, comparator not stated): 1.2 | increase in transfection efficiency, factor [6]: 1.5 | maximum increase in transfection efficiency, factor ([5]; compared to peptide RKK20 without NLS, 200 pmol resp., FIG. 11): 2.8

RKKRK RKKRK RKKRK RKKRK-UUU-EEDTP PKKKR KVED [RKK20U3-NLS2]
peptide amount needed to form a high molecular weight complex / total band shift (pmaxGFP plasmid DNA [3]): seems to increase the peptide amount necessary for a total band shift | increase in transfection efficiency, factor ([4]; ExGen500, 24 h, compared to DNA transfected without any peptide or complexed with RKK20GGGS peptide without NLS, FIG. 6): 1.2 | peptide amount sufficient for increase in transfection efficiency (in words) ([4]; ExGen500, FIG. 5 versus FIG. 6): lower amount of RKKU3-NLS2 than of K16U3-NLS2 is sufficient | increase in transfection efficiency, factor [6]: 2

RKKRK RKKRK RKKRK RKKRK-UUU-GSGSP KKKRK VGSG [RKK20U3-NLS1]
peptide amount needed to form a high molecular weight complex / total band shift (pmaxGFP plasmid DNA [3]): does not behave much differently to the RKK20GGGS peptide | change of transfection efficiency (in words) ([4]; ExGen500, 24 h): increase is higher for the NLS2-peptide than for the NLS1-bearing peptide
